Experimental data published in patent US20260101897A1, “PLANT ENVIRONMENTAL STRESS TOLERANCE IMPROVEMENT AGENT AND ENVIRONMENTAL STRESS TOLERANCE IMPROVEMENT METHOD” (priority 2022, published 2026).

Legend:
Assay type in all cases: in vivo
[1] = tested on: Arabidopsis thaliana (Col-0); assay: Evaluation Example 1: tolerance to salt stress, plant mortality
Description: L-(+)-ergothioneine (Examples 1 and 2 and Comparative Example 3) and glycine betaine (Comparative Examples 1 and 2 and Comparative Example 4) were prepared so as to have the concentrations shown in Table 1 below. EGT and GB were commercially available products, and pure water was used as a solvent.
Three individuals of Arabidopsis thaliana (Col-0) were seeded per well in a 24-well cell culture plate. Mixed salts for Murashige and Skoog medium (Fujifilm Wako Pure Chemical Industries, Ltd.) to which 1 wt. % of sucrose and 0.1 wt. % of agar-agar powder were added was used as a liquid medium, and the liquid medium was placed in a 2 mL per well.
They were located in a growth chamber set at room temperature of 22° C., and the light period was 16 hours and the dark period was 8 hours. The light conditions were set such that the light intensity was 5000 lx in the central part under irradiation with the fluorescent lamp. On the fourth day after seeding, EGT or GB was added so as to give a predetermined concentration, and 24 hours later, an aqueous sodium chloride solution was added so as to give a final 100 mM concentration, thereby giving a salt stress.
The number of surviving plants was counted on the 10th day after seeding, and the plant mortality rate was evaluated as an index of physiological disorder. The mortality rate and the environmental stress suppressing rate were calculated according to the following formulas.

[2] = tested on: Arabidopsis thaliana (Col-0); assay: Evaluation Example 2: tolerance to drying stress, plant mortality
Description: A commercially available EGT was used, and pure water was used as a solvent.
One individual Arabidopsis thaliana (Col-0) was seeded in a plastic pot having a diameter of 60 mm and a height of 55 mm. Plastic deep dishes each having a diameter of 160 mm and a height of 28 mm were prepared, and six pots were respectively placed therein. As soil, 45 mL of vermiculite, 22.5 mL of granular soil (Kumiai horticultural soil), and 22.5 mL of vermiculite were placed in the pot in this order.
They were located in a growth chamber set at room temperature of 22° C., and the light period was 16 hours and the dark period was 8 hours. The light conditions were set such that the light intensity was 5000 lx in the central part under irradiation with the fluorescent lamp. Water supply was conducted from the bottom, and the water level was set at about 5 mm. EGT in an amount of 50 mL was added on the 22nd day after seeding, and drying stress was applied by stopping water supply for 18 days from 2 days after the addition of EGT.
The number of surviving plants was counted 18 days after the stoppage of water, and the plant mortality rate was evaluated as an index of physiological disorder. The mortality rate and the environmental stress suppressing rate were calculated according to the following formulas.

[3] = tested on: radish (Akamaru Hatsuka); assay: Evaluation Example 7: tolerance to drying stress, leaf mortality; settings: for Leaf mortality rate: test compound 0.5 mM (50 mL), water supply stopped 7 days twice; for Leaf mortality rate / Environmental stress suppressing rate: drying stress Yes; for Environmental stress suppressing rate: test compound 0.5 mM
Description: EGT and GB were commercially available products, and pure water was used as a solvent. In a plastic pot having a diameter of 135 mm and a height of 110 mm, 1 kg of granular soil (Kumiai horticultural soil) was placed, and 5 individual radish (Akamaru Hatsuka) was seeded per pot. They were managed in a greenhouse set at room temperature of 25° C. EGT in an amount of 50 mL or GB in an amount of 50 mL was added on the 22nd day after seeding, and water supply was stopped for 7 days. After cultivation under water supply for 7 days, drying stress was applied by stopping water supply for 7 days again. The dead leaves of radish were counted after the drying stress was applied, and the leaf mortality rate was evaluated as an index of physiological disorder. The leaf mortality rate and the environmental stress suppressing rate were calculated according to the following formulas. [formula] [formula]

[4] = tested on: wheat; assay: Evaluation Example 10: tolerance to ultraviolet stress, leaf mortality; settings: for Environmental stress suppressing rate: ultraviolet stress Yes
Description: EGT (Examples 12 and 13, Comparative Examples 37 and 38) or GB (Comparative Examples 35, 36, 39, and 40) was prepared so as to have a concentration shown in Table 10 below. EGT and GB were commercially available products, and pure water was used as a solvent.
5 mL of pure water was added to 9-cm petri dishes on which filter paper was placed, and 10 wheat seeds were seeded per petri dish. They were located in a growth chamber set at room temperature of 22° C., and the light period was 16 hours and the dark period was 8 hours. The light conditions were set such that the light intensity was 5000 lx in the central part under irradiation with the fluorescent lamp.
On the 7th day after seeding, pure water in the petri dish was removed, 5 mL of EGT or 5 mL of GB was added to the petri dish, and one day after that, ultraviolet stress was applied by exposure for one hour under irradiation with an ultraviolet lamp (GL-15, manufactured by Toshiba Corporation) with the intensity of ultraviolet radiation of a wavelength of 254 nm set to 550 μW/cm^−2.
The dead leaves were counted 6 days after the ultraviolet stress was applied, and the leaf mortality rate was evaluated as an index of physiological disorder. The leaf mortality rate and the environmental stress suppressing rate were calculated according to the following formulas.

[5] = tested on: Arabidopsis thaliana (Col-0); assay: Evaluation Example 12: tolerance to intense light stress, leaf whitening; settings: for Leaf whitening rate: test compound 0.1 mM (12.5 mL), intense light stress Yes (LED light, 24 hours); for Environmental stress suppressing rate: test compound 0.1 mM, intense light stress Yes
Description: EGT and GB were commercially available products, and pure water was used as a solvent. In a plastic pot having a diameter of 60 mm and a height of 55 mm, 90 mL of culture soil (manufactured by Hanagokoro Co., Ltd.) was placed, and 4 individual Arabidopsis thaliana (Col-0) were seeded per pot. They were located in a growth chamber set at room temperature of 22° C., and the light period was 16 hours and the dark period was 8 hours. The light conditions were set such that the light intensity was 5000 lx in the central part under irradiation with the fluorescent lamp. 12.5 mL of EGT or 12.5 mL of GB was added on the 43rd day after seeding, and one day after that, intense light stress was applied by exposure for 24 hours under irradiation of LED light (manufactured by Esbaybulbs Co., Ltd.) with a light intensity set to 2000 μmol/m 2/sec. Whitened leaves of Arabidopsis thaliana subjected to intense light stress were counted, and the leaf whitening rate was evaluated as an index of physiological disorder. The leaf whitening rate and the environmental stress suppressing rate were calculated according to the following formulas. [formula] [formula]

[6] = test compound 0.1 mM, salt stress Yes (100 mM sodium chloride)
[7] = test compound 0.1 mM, salt stress Yes (100 mM sodium chloride), 10th day after seeding
[8] = test compound 1 mM, salt stress No
[9] = test compound 1 mM, salt stress Yes (100 mM sodium chloride)
[10] = test compound 1 mM, salt stress Yes (100 mM sodium chloride), 10th day after seeding
[11] = test compound 0.1 mM (5 mL), ultraviolet stress Yes (254 nm, one hour), 6 days after stress
[12] = test compound 0.1 mM, ultraviolet stress No
[13] = test compound 1 mM (5 mL), ultraviolet stress Yes (254 nm, one hour), 6 days after stress
[14] = test compound 1 mM, ultraviolet stress No

## C[N+](C)(C)[C@@H](Cc1c[nH]c(=S)[nH]1)C(=O)[O-] [EGT, L-(+)-ergothioneine]
[1]; [6]
  Environmental stress suppressing rate: 48%
[1]; [7]
  Mortality rate: 39%
[1]; [8]
  Mortality rate: 0%
[1]; [9]
  Environmental stress suppressing rate: 81%
[1]; [10]
  Mortality rate: 14%
[2]; EGT 1 mM, drying stress
  survival under drying stress, result in words: all Arabidopsis thaliana plants survived
[2]; test compound 1 mM (50 mL), drying stress Yes, water supply stopped 18 days
  Mortality rate: 0%
[2]; test compound 1 mM, drying stress Yes
  Environmental stress suppressing rate: 100%
[3]
  Leaf mortality rate: 17%
  Environmental stress suppressing rate: 71%
[4]; [11]
  Leaf mortality rate: 34%
[4]; [12]
  Leaf mortality rate: 1%
[4]; test compound 0.1 mM
  Environmental stress suppressing rate: 36%
[4]; [13]
  Leaf mortality rate: 23%
[4]; [14]
  Leaf mortality rate: 0%
[4]; test compound 1 mM
  Environmental stress suppressing rate: 57%
[5]
  Leaf whitening rate: 8%
  Environmental stress suppressing rate: 78%

## C[N+](C)(C)CC(=O)[O-] [GB, glycine betaine, reference compound]
[1]; GB treatment 1 mM and 0.1 mM, salt stress
  death due to salt stress, result in words: not suppressed
[1]; [6]
  Environmental stress suppressing rate: 0%
[1]; [7]
  Mortality rate: 79%
[1]; [8]
  Mortality rate: 0%
[1]; [9]
  Environmental stress suppressing rate: 0%
[1]; [10]
  Mortality rate: 75%
[3]; 0.5 mM, drying stress
  mortality rate due to drying stress, result in words: not suppressed
[3]
  Leaf mortality rate: 73%
  Environmental stress suppressing rate: 0%
[4]; GB 1 mM and 0.1 mM, ultraviolet stress
  mortality rate due to ultraviolet stress, result in words: hardly suppressed
[4]; [11]
  Leaf mortality rate: 50%
[4]; [12]
  Leaf mortality rate: 5%
[4]; test compound 0.1 mM
  Environmental stress suppressing rate: 6%
[4]; [13]
  Leaf mortality rate: 44%
[4]; [14]
  Leaf mortality rate: 0%
[4]; test compound 1 mM
  Environmental stress suppressing rate: 17%
[5]; 0.1 mM, intense light stress
  leaf whitening due to intense light stress, result in words: not suppressed
[5]
  Leaf whitening rate: 40%
  Environmental stress suppressing rate: 0%
